Positions of bridges follow the written chain, without caps; N, C: chain ends. Non-standard residues stand in square brackets, D forms with d. Residues, ends and D or L forms follow the SMILES beside them. *: point of attachment. hPhe(3-Cl-4-CF3) = N[C@@H](CCc1ccc(C(F)(F)F)c(Cl)c1)C(=O)O; NMePhe(4-Cl) = CN[C@@H](Cc1ccc(Cl)cc1)C(=O)O; NMePhe(4-F) = CN[C@@H](Cc1ccc(F)cc1)C(=O)O; Abu(4,4,4-F3) = N[C@@H](CC(F)(F)F)C(=O)O; Phe(3-Cl) = N[C@@H](Cc1cccc(Cl)c1)C(=O)O; NMeGly(cPent) = CN[C@H](C(=O)O)C1CCCC1; NMeCha = CN[C@@H](CC1CCCCC1)C(=O)O; Azetidine(3,3-F2) = FC1(F)CN(*)C1; NMeCba = CN[C@@H](CC1CCC1)C(=O)O; NMeChg = CN[C@H](C(=O)O)C1CCCCC1; NMeF = CN[C@@H](Cc1ccccc1)C(=O)O; N(CH2CH2)2CF2 = FC1(F)CCN(*)CC1; NMeD = CN[C@@H](CC(=O)O)C(=O)O; NMeL = CN[C@@H](CC(C)C)C(=O)O; NMeV = CN[C@H](C(=O)O)C(C)C; Trifluoroethyl = FC(F)(F)C*; d(β3hA) = C[C@@H](N)CC(=O)O; NMeS = CN[C@@H](CO)C(=O)O; Pip = O=C(O)[C@@H]1CCCCN1; NMeA = CN[C@@H](C)C(=O)O; Piperidide = C1CCN(*)CC1; Pyrrolidide = C1CCN(*)C1; dNMeA = CN[C@H](C)C(=O)O; Ac5c = NC1(C(=O)O)CCCC1; Aze = O=C(O)[C@@H]1CCN1; Cyclobutyl = C1CC(*)C1; NEtG = CCNCC(=O)O; Sar = CNCC(=O)O
What follows are molecules tested against T1, Kras and SOS1 (biotin-tagged human Kras loaded with GDP, His-tagged human SOS1) (Homo sapiens, UniProt P01116, G12D) (assay: Protein-protein interaction inhibition between Kras and SOS1 (KrasGl2D-SOS PPI) using AlphaScreen). Settings: AlphaScreen; biotin-tagged human Kras loaded with GDP, His-tagged human SOS1; read-out: KRAS G12D-SOS PPI IC50.
T1 construct: made in house; host or cells: E. coli (stated for Kras only)
T1 sequence (P01116 1-188 isoform P01116-2 G12D): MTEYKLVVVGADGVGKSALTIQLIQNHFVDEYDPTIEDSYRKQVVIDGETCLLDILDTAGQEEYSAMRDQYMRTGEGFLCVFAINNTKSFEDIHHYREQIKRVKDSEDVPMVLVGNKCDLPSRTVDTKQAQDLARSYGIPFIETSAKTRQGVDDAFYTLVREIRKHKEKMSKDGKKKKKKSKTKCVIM
Type: binding
Outline: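 AlphaScreen format: Ni donor beads capture His-SOS1, streptavidin acceptor beads capture biotinylated Kras (E. coli-expressed, GDP-loaded post-purification). Excite 680 nm, read 520-620 nm.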
`CC[C@H](C)[C@@H]1NC(=O)[C@H](C)N(C)C(=O)C[C@@H](C)NC(=O)[C@H](C2CCCC2)N(C)C(=O)C2(CCCC2)NC(=O)[C@@H]2CCCN2C(=O)[C@H](CCc2ccc(C(F)(F)F)c(Cl)c2)NC(=O)[C@@H](C)N(C)C(=O)[C@H](Cc2ccc(F)cc2)N(C)C(=O)CN(C)C(=O)CN(C)C1=O` [Compound 206] (cyclo([Ac5c][NMeGly(cPent)][d(β3hA)][NMeA]I[Sar][Sar][NMePhe(4-F)][dNMeA][hPhe(3-Cl-4-CF3)]P)) was tested, and the IC50 was 110 nM. `CC[C@H](C)[C@@H]1NC(=O)[C@H](CC(C)C)N(C)C(=O)C[C@@H](C(=O)N2CCCCC2)N(C)C(=O)[C@H](COCC(F)(F)F)N(C)C(=O)C2(CCCC2)NC(=O)[C@@H]2CCCN2C(=O)[C@H](CCc2ccc(C(F)(F)F)c(Cl)c2)NC(=O)CN(C)C(=O)[C@H](CC2CCCCC2)N(C)C(=O)CN(C)C(=O)CN(C)C1=O` [Compound 208] ([NMeL]I[Sar][Sar][NMeCha][Sar][hPhe(3-Cl-4-CF3)]P[Ac5c][NMeS](Trifluoroethyl)[NMeD]-Piperidide; lactam N-11) was tested, and the IC50 was 120 nM. Work on `CC[C@H](C)[C@@H]1NC(=O)[C@H](CC(C)C)N(C)C(=O)C[C@@H](C)NC(=O)[C@H](C(C)C)N(C)C(=O)C2(CCCC2)NC(=O)[C@@H]2CCCN2C(=O)[C@H](CCc2ccc(C(F)(F)F)c(Cl)c2)NC(=O)CN(C)C(=O)[C@H](CC2CCCCC2)N(C)C(=O)CN(C)C(=O)CN(CC)C1=O` [Compound 210] (cyclo([Ac5c][NMeV][d(β3hA)][NMeL]I[NEtG][Sar][NMeCha][Sar][hPhe(3-Cl-4-CF3)]P)) yielded an IC50 of 80 nM. In the case of `CC[C@H](C)[C@@H]1NC(=O)[C@@H]2CCCCN2C(=O)C[C@@H](C)NC(=O)[C@H](CC(C)C)N(C)C(=O)C2(CCCC2)NC(=O)[C@H](CC(C)C)N(C)C(=O)[C@H](CCc2ccc(C(F)(F)F)c(Cl)c2)NC(=O)CN(C)C(=O)[C@H](CC2CCCCC2)N(C)C(=O)CN(C)C(=O)CN(C)C1=O` [Compound 213] (cyclo([Ac5c][NMeL][d(β3hA)][Pip]I[Sar][Sar][NMeCha][Sar][hPhe(3-Cl-4-CF3)][NMeL])), the IC50 is reported as 48 nM. `CC[C@H](C)[C@@H]1NC(=O)[C@H](CC(C)C)N(C)C(=O)C[C@@H](C(=O)N(C)C)N(C)C(=O)[C@H](C(C)C)N(C)C(=O)C2(CCCC2)NC(=O)[C@H](CC(=O)N2CCC(F)(F)CC2)N(C)C(=O)[C@H](CCc2ccc(C(F)(F)F)c(Cl)c2)NC(=O)CN(C)C(=O)[C@H](CC2CCCCC2)N(C)C(=O)CN(C)C(=O)CN(C)C1=O` [Compound 218] ([NMeL]I[Sar][Sar][NMeCha][Sar][hPhe(3-Cl-4-CF3)][NMeD](N(CH2CH2)2CF2)[Ac5c][NMeV][NMeD]-NMe2; lactam N-11) gave an IC50 of 1.9 nM. `CC[C@H](C)[C@@H]1NC(=O)[C@H](CC(C)C)N(C)C(=O)C[C@@H](C(=O)N(C)C)N(C)C(=O)[C@H](C2CCCC2)N(C)C(=O)[C@H](CC(F)(F)F)NC(=O)[C@H](CC(=O)N2CC(F)(F)C2)N(C)C(=O)[C@H](CCc2ccc(C(F)(F)F)c(Cl)c2)NC(=O)CN(C)C(=O)[C@H](CC2CCCCC2)N(C)C(=O)[C@@H]2CCN2C(=O)[C@H](C)N(C)C1=O` [Compound 222] ([NMeL]I[NMeA][Aze][NMeCha][Sar][hPhe(3-Cl-4-CF3)][NMeD](Azetidine(3,3-F2))[Abu(4,4,4-F3)][NMeGly(cPent)][NMeD]-NMe2; lactam N-11) was tested, and the IC50 was 20 nM. With `CC[C@H](C)[C@@H]1NC(=O)[C@H](C)N(C)C(=O)C[C@@H](C(=O)N2CCCC2)NC(=O)[C@H](C(C)C)N(C)C(=O)[C@H](Cc2ccccc2)N(C)C(=O)[C@H](Cc2ccccc2)NC(=O)[C@H](Cc2cccc(Cl)c2)NC(=O)CN(C)C(=O)[C@H](Cc2ccc(Cl)cc2)N(C)C(=O)CN(C)C(=O)CN(CC)C1=O` [Compound 224] ([NMeA]I[NEtG][Sar][NMePhe(4-Cl)][Sar][Phe(3-Cl)]F[NMeF][NMeV]D-Pyrrolidide; lactam N-11) the IC50 was 230 nM. Work on `CC(C)C[C@H]1C(=O)N[C@@H](COC2CCC2)C(=O)N(C)CC(=O)N(C)CC(=O)N(C)[C@@H](CC2CCCCC2)C(=O)N(C)CC(=O)N[C@@H](CCc2ccc(C(F)(F)F)c(Cl)c2)C(=O)N2CCC[C@H]2C(=O)NC2(CCCC2)C(=O)N(C)[C@@H](C2CCCCC2)C(=O)N(C)[C@H](C(=O)N2CCCCC2)CC(=O)N1C` [Compound 226] ([NMeL]S(Cyclobutyl)[Sar][Sar][NMeCha][Sar][hPhe(3-Cl-4-CF3)]P[Ac5c][NMeChg][NMeD]-Piperidide; lactam N-11) yielded an IC50 of 3.5 nM. For `CC[C@H](C)[C@@H]1NC(=O)[C@H](CC2CCC2)N(C)C(=O)C[C@@H](C)NC(=O)[C@H](C(C)C)N(C)C(=O)C2(CCCC2)NC(=O)[C@@H]2CCCN2C(=O)[C@H](CCc2ccc(C(F)(F)F)c(Cl)c2)NC(=O)CN(C)C(=O)[C@H](CC2CCCCC2)N(C)C(=O)CN(C)C(=O)CN(C)C1=O` [Compound 230] (cyclo([Ac5c][NMeV][d(β3hA)][NMeCba]I[Sar][Sar][NMeCha][Sar][hPhe(3-Cl-4-CF3)]P)), the IC50 was 39 nM.
